One data set deals with T1, integrin α5β1 (Homo sapiens, UniProt P05556+P08648).
T1 construct: purchased Chemicon, Millipore
As to the kind of experiment: Isolated receptor binding assay, immobilised integrin, [125I]echistatin displacement. The note with it: for Ki: immobilized integrin; for Suppression of the binding of [125I]echistatin to immobilised integrin α5β1: result in words. How it is done:
(§1) The receptor binding assay was performed following the procedure described previously. In brief, commercially available purifiedα v β 3,α 5 β 1, orα IIb β 3 (Triton X-100 formulation, Chemicon, Millipore) was diluted in coating buffer (25 mM Tris-HCl, 150 mM NaCl, 1 mM CaCl2, 0.5 mM MgCl2, 1 mM MnCl2, pH 7.4), and an aliquot of 100 μL/well, corresponding to 25 ng/wellα v β 3, 100 ng/wellα 5 β 1, or 50 ng/wellα IIb β 3, was added to a 96-well microtiter plate (Maxisorb, Nunc, Wiesbaden, Germany) and incubated at 4°C overnight. The cells were incubated for two hours with blocking buffer (200 μL, coating buffer containing 1% (w/v) bovine serum albumin (BSA)) at room temperature. After washing twice with binding buffer (coating buffer with 0.1% (w/v) BSA) the cells were incubated in the presence of the competing ligand (90 μL, 0.5 pM to 500 nM echistatin; 0.05 nM to 50 μM peptide in binding buffer) with [^125I]echistatin (0.37 kBq/well, 10 μL, 0.05 nM; PerkinElmer, Germany) for 3 h. Afterwards, the cells were washed three times with binding buffer, and bound [^125I]echistatin was solubilised with warm NaOH (2 M). The radioactivity in the resulting samples was measured by a γ-counter. Each data point represents the mean from three cells. All measurements were repeated at least once. K i values were calculated using the software program GraphPad PRISM (GraphPad Software Inc., CA, USA).
(§2) The binding affinities were determined using isolated receptor binding assays where the different integrins (α 5 β 1,α v β 3, andα IIb β 3) were immobilised and [^125I]echistatin was replaced by increasing amounts of the different peptides tested. […] Introduction of the (RS)-2-fluoropropionic acid at the N-terminus of the peptide reduced the binding affinity by a factor of approx. 10.

A further data set addresses T2, integrin αIIbβ3 (Homo sapiens, UniProt P05106+P08514).
T2 construct: purchased Chemicon, Millipore
The data set is described as above. Here is the method:
as §1, §2

In the next data set the target is T3, integrin αvβ3 (Homo sapiens, UniProt P05106+P06756).
T3 construct: purchased Chemicon, Millipore
The description is as above. How it is done: as §1, §2

Another data set deals with α5β1. Further details: method as in PMID 7507494. The note with it: read-out: IC50, inhibition of binding of fibronectin to α5β1; cited from earlier work.
Data set [1] is classed as in vitro ADME, human. How it is done:
The protein binding studies were carried out by incubating [^18F]FProp-C^*RRETAWAC^*-OH (1 MBq/mL) in fresh human serum at 37°C for different time points (30, 60, and 120 min). After incubation, the solution was passed through a spin column (MicroSpin G-50 columns; GE Healthcare, Buckinghamshire, United Kingdom). Protein binding was determined by measuring the activity fixed on the column and the activity in the eluate in the gamma counter. As control [^18F]FProp-C^*RRETAWAC^*-OH was incubated at the same concentration for 60 min in PBS instead of serum.

Data set [2] is classed as in vitro ADME, human. Here is the method:
For stability studies, [^18F]FProp-C^*RRETAWAC^*-OH (approx. 2 MBq/mL) was incubated in human serum for 30, 60, and 120 min at 37°C. At each time point, aliquots of 100 μL were taken and proteins were precipitated using 150 μL acetonitrile. The suspension was treated for 5 min with ultrasound and subsequently centrifuged. The supernatant was diluted with water and analysed by HPLC.
This is another data set of the same source.

Data set [3] deals with DU145 human prostate carcinoma cells (αvβ3-negative and α5β1-positive). Description: Cell uptake study with/without blocking by H-C*RRETAWAC*-OH. The data set is classed as cell-based. The conditions noted are these: 37°C, with or without excess H-C*RRETAWAC*-OH. How it is done:
(§3) M21 (α v β 3-positive andα 5 β 1-negative), […] (α v β 3-negative andα 5 β 1-positive), and M21L (both receptors negative) cells were maintained in Gibco RPMI 1640 (Life Technologies, Carlsbad, CA) containing 1% glutamine, 10% (v/v) fetal calf serum (FCS), and 1% penicillin/streptomycin/glutamine and grown in tissue culture flasks (Cellstar; Greiner Bio-One, Kremsmuenster, Austria) at 37°C in a humidified atmosphere of 5% CO2 (v/v). For cell uptake studies, cells were trypsinised, washed twice with binding buffer (10 mM HEPES (pH 7.4), 150 mM NaCl, 2 mM MnCl2, 0.1% BSA), and aliquots of 0.9 mL containing 2 × 10^6 cells were transferred to Eppendorf tubes. After addition of 50 μL radiotracer (>100,000 cpm), cells were incubated at 37°C for 120 min in triplicate with either 50 μL PBS with 0.5% BSA (unblocked) or 50 μL of 50 μM H-C^*RRETAWAC^*-OH in PBS/0.5% BSA (blocked), respectively.
(§4) Incubation was stopped by centrifugation (2 min, 1000 rpm); medium was removed and cells were washed twice with 1 mL ice-cold binding buffer. […] Cells were lysed by treatment in 1 N NaOH and […] radioactivity was collected (internalised radioligand fraction). Protein content in the NaOH fraction was determined using spectrophotometric determination with Bradford reagent (Sigma Aldrich, Vienna, Austria). Internalised radioactivity was expressed as percentage of total activity per mg protein.

Data set [4] concerns M21-L human melanoma cells (both receptors negative). Described as above. The conditions noted are these: 37°C, with or without excess H-C*RRETAWAC*-OH. The data set is classed as cell-based. How it is done: as §3, §4
Setting [5] is: Binding affinity (Ki) α5β1, average and standard deviation of the mean, or bound with n = 2, 125I-echistatin.
Setting [6] is: Binding affinity (Ki) α5β1, single determinations, 125I-echistatin as radioligand.
[7] abbreviates: average and standard deviation of the mean, or bound with n = 2, 125I-echistatin, read-out: Binding affinity (Ki) α5β1.
Setting [8] is: single determinations, 125I-echistatin as radioligand, read-out: Binding affinity (Ki) α5β1.

This is an account of results in paper PMC4211326, “H-CRRETAWAC-OH, a Lead Structure for the Development of Radiotracer Targeting Integrin α 5 β 1?” (BioMed Research International, 2014).

“And” between values parts separate entries of the source, which are not always exact repeats. Equal values may be shown once. Read-outs that look alike come from different tables or passages of the source. Where a SMILES comes first, the peptide text is derived from it. Bridges are numbered along the chain shown (N, C = ends). The star is where a group is joined. Propanoyl(2-F) = CC(F)C(=O)* Bounds are passed on as bounds.

T3 sequence (P06756 31-889 limits assumed): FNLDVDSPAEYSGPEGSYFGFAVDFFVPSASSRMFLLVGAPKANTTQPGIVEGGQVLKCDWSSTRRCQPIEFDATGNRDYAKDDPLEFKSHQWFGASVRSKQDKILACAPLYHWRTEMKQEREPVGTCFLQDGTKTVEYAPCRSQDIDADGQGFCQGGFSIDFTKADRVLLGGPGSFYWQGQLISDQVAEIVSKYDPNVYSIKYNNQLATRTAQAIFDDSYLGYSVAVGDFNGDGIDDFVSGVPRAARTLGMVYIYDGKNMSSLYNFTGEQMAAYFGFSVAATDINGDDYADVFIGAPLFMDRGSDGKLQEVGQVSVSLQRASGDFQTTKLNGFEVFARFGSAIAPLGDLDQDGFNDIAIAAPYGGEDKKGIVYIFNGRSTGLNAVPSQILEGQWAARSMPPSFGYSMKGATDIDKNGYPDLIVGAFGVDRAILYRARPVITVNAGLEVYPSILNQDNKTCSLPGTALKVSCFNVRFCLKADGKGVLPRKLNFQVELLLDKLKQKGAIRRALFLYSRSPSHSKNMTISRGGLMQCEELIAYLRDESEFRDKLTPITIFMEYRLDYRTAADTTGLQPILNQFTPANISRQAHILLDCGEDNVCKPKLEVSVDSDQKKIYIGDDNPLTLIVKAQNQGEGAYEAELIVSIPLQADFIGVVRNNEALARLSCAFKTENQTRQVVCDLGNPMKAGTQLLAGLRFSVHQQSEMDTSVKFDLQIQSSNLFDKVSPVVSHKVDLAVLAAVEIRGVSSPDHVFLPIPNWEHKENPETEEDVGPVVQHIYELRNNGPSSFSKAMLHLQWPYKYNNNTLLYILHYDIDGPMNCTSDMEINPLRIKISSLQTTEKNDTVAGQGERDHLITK
T3 sequence (P06756 891-1048 partner limits assumed): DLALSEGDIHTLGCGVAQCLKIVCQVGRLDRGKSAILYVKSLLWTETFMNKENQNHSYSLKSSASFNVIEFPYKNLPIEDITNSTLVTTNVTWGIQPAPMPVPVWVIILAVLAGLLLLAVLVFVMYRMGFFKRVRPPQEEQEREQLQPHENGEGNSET
T3 sequence (P05106 27-788): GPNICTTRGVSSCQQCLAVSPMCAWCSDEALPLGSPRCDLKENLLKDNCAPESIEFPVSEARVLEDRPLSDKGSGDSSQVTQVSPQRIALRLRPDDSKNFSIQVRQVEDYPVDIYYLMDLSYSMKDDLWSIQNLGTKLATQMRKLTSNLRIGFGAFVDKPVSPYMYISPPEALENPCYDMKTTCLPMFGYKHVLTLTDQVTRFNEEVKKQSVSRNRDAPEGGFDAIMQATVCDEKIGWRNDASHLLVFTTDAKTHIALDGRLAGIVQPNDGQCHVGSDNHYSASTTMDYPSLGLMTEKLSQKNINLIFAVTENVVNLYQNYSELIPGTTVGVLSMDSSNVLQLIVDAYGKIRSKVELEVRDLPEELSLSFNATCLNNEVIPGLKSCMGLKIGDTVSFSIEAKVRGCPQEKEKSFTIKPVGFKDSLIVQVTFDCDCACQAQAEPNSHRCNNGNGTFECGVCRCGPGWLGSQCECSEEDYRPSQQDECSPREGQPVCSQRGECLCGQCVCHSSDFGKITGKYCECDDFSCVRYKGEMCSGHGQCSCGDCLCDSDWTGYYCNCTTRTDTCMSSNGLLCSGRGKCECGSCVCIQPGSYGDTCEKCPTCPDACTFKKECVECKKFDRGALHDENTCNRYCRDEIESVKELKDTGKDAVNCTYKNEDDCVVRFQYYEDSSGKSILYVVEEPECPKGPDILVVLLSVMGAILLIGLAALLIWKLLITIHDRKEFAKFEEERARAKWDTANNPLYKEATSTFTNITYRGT
T1 sequence (P08648 42-894 limits assumed): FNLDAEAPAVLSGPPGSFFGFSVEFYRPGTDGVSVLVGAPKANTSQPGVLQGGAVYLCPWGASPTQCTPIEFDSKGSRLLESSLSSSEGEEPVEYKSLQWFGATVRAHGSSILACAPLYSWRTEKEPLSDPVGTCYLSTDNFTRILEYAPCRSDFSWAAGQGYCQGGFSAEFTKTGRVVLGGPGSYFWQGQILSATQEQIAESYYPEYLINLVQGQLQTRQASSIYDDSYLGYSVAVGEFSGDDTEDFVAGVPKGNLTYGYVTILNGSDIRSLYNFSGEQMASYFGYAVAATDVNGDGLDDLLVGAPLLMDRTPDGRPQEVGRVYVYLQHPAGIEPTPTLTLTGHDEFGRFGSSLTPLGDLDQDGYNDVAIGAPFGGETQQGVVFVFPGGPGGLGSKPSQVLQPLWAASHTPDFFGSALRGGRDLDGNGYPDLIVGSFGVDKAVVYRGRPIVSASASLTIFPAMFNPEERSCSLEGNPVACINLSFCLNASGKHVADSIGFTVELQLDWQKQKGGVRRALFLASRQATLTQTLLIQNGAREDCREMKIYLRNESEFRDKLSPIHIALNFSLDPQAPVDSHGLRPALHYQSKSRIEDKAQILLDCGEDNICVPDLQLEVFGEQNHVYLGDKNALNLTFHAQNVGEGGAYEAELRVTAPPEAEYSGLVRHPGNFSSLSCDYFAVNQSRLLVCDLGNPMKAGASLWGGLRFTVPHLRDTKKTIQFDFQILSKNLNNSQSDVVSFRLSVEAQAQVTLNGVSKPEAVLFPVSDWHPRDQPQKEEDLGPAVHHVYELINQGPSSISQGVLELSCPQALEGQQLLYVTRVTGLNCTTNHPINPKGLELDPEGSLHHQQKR
T1 sequence (P08648 895-1049 partner limits assumed): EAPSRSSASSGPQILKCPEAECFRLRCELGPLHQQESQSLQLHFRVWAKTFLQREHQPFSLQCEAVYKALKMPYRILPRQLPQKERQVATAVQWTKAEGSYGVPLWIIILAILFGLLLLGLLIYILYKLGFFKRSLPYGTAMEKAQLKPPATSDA
T1 sequence (P05556 21-798): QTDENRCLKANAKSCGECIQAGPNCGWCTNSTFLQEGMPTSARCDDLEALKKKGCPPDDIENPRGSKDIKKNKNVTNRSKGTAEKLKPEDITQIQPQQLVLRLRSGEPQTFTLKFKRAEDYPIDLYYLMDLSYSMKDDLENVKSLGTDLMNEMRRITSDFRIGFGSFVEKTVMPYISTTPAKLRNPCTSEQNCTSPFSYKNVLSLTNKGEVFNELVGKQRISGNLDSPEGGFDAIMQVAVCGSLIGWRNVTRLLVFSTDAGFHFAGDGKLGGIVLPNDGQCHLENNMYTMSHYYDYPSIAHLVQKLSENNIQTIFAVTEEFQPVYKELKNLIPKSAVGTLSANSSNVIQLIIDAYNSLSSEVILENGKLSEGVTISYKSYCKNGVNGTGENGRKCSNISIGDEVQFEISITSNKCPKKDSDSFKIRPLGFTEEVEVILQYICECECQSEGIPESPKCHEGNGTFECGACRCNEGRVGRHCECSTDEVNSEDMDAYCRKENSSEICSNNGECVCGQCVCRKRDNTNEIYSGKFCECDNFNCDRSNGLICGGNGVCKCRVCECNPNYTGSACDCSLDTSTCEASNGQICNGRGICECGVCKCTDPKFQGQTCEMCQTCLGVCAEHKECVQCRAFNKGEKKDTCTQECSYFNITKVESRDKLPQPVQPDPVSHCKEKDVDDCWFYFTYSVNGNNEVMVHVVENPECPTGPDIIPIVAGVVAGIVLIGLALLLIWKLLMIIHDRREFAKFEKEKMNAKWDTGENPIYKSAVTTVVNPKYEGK
T2 sequence (P08514 32-887 limits assumed): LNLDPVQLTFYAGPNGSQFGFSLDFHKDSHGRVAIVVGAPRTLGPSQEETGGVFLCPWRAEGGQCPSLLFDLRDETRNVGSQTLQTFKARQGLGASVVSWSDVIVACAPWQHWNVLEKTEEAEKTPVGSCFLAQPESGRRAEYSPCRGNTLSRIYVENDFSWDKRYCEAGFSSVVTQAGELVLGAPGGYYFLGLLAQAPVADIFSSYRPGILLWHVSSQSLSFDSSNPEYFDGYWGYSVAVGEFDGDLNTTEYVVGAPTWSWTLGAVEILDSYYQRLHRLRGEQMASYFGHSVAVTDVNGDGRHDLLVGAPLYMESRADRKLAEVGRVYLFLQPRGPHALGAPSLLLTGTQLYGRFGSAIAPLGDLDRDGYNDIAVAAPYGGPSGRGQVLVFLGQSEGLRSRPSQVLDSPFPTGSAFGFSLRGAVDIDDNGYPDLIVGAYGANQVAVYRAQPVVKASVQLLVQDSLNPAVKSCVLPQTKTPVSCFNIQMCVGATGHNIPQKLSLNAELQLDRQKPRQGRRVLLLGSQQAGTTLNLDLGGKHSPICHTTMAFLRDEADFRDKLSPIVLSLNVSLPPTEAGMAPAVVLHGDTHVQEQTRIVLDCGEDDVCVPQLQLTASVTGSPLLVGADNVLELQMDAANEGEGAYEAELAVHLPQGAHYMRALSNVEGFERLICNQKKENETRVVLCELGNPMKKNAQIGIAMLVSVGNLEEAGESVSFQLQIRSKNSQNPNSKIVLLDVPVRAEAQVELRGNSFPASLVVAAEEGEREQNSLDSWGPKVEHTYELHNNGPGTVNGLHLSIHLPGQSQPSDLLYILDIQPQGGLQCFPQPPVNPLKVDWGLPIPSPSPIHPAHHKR
T2 sequence (P08514 891-1039 partner limits assumed): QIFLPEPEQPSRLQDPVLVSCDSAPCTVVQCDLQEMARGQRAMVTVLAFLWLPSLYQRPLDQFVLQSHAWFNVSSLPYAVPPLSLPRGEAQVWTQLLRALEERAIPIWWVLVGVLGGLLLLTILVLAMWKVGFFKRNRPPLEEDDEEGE
T2 sequence (P05106 27-788): as the sequence (P05106 27-788) above

`CC(F)C(=O)N[C@H]1CSSC[C@@H](C(=O)O)NC(=O)[C@H](C)NC(=O)[C@H](Cc2c[nH]c3ccccc23)NC(=O)[C@H](C)NC(=O)[C@H]([C@@H](C)O)NC(=O)[C@H](CCC(=O)O)NC(=O)[C@H](CCCNC(=N)N)NC(=O)[C@H](CCCNC(=N)N)NC1=O` (some centres unmarked) [FProp-C∗RRETAWAC∗-OH (1)] ({Propanoyl(2-F)}-CRRETAWAC-OH; disulfide 1-9): the Ki at integrin α5β1 (setting [5]) was 44 ± 3 nM; on integrin α5β1 (setting [6]), 41 nM and 47 nM; on integrin αIIbβ3, > 50000 nM; at integrin αvβ3, > 50000 nM.
Turning to `CC(F)C(=O)N[C@H]1CSSC[C@@H](C(=O)O)NC(=O)[C@H](C)NC(=O)[C@H](Cc2c[nH]c3ccccc23)NC(=O)[C@H](C)NC(=O)[C@H]([C@@H](C)O)NC(=O)[C@H](CCC(=O)O)NC(=O)[C@H](CCCNC(=N)N)NC(=O)[C@H](CCCNC(=N)N)NC1=O` (some centres unmarked) [FProp-C∗RRETAWAC∗-OH (2)] ({Propanoyl(2-F)}-CRRETAWAC-OH; disulfide 1-9), the Ki at integrin α5β1 (setting [5]) was 77 ± 50 nM; on integrin α5β1 (setting [6]), 127 nM and 26 nM; on integrin αIIbβ3 (read-out: Binding affinity (Ki) αIIbβ3, immobilized integrin, 125I-echistatin as radioligand), > 50000 nM; on integrin αvβ3 (read-out: Binding affinity (Ki) αvβ3, immobilized integrin, 125I-echistatin as radioligand) it was > 50000 nM.
As for “FProp-C^*RRETAWAC^*-OH: non-radioactive reference compound, N-terminal (RS)-2-fluoropropionyl conjugate of the lead peptide ({(RS)‑2‑fluoropropionyl}-CRRETAWAC-OH; disulfide N-9)”, the “Suppression of the binding of [125I]echistatin to immobilised integrin α5β1” value with integrin α5β1 is “fully suppress”.
For `C[C@@H]1NC(=O)[C@H](Cc2c[nH]c3ccccc23)NC(=O)[C@H](C)NC(=O)[C@H]([C@@H](C)O)NC(=O)[C@H](CCC(=O)O)NC(=O)[C@H](CCCNC(=N)N)NC(=O)[C@H](CCCNC(=N)N)NC(=O)[C@@H](N)CSSC[C@@H](C(=O)O)NC1=O` [H-C∗RRETAWAC∗-OH, H-Cys^*-Arg-Arg-Glu-Thr-Ala-Trp-Ala-Cys^*-OH] (H-CRRETAWAC-OH; disulfide 1-9), the inhibition constant (Ki) on integrin α5β1 (setting [7]) was 5.3 ± 4.1 nM; on integrin α5β1 (setting [8]), 10 nM and 3.9 nM and 2.1 nM; on integrin αvβ3 (immobilized integrin, 125I-echistatin as radioligand, read-out: Binding affinity (Ki) αvβ3) it was > 50000 nM. Also, the “Suppression of the binding of [125I]echistatin to immobilised integrin α5β1” value at integrin α5β1 was “fully suppress”. Moreover, the half-maximal inhibitory concentration (IC50) in the data set on α5β1 was 8 nM.
“[^18F]FProp-Cys^*-Arg-Arg-Glu-Thr-Ala-Trp-Ala-Cys^*-OH ({(18F)fluoropropionyl}-CRRETAWAC-OH; disulfide N-9) [[^18F]FProp-C^*RRETAWAC^*-OH, 18F-labelled radiopeptide tracer for integrin α5β1]”: the “Protein bound activity in human serum” value in data set [1] is reported as “below 6 % of the total incubated activity”. For the same compound, the “Serum stability (percentage printed in Figure 2)” value in data set [2] is reported as 97.1%. The “Specific binding and internalisation (cell uptake)” value in data set [3] is “specific binding and internalisation”. In addition, in data set [4], the “Specific uptake (cell uptake)” value is on record as “no specific uptake”.
`C[C@@H]1NC(=O)[C@H](Cc2c[nH]c3ccccc23)NC(=O)[C@H](C)NC(=O)[C@H]([C@@H](C)O)NC(=O)[C@H](CCC(=O)O)NC(=O)[C@H](C)NC(=O)[C@H](CCCNC(=N)N)NC(=O)[C@@H](N)CSSC[C@@H](C(=O)O)NC1=O` [H-C∗RAETAWAC∗-OH] (H-CRAETAWAC-OH; disulfide 1-9): the Ki on integrin α5β1 (setting [7]) was 16 ± 1 nM; on integrin α5β1 (setting [8]) it was 17 nM and 15 nM.

As a reminder, the Ki is the equilibrium dissociation constant of an inhibitor or competing ligand from its target. Usually IC50 stands for the concentration at which inhibition is half-maximal.
